PubChem BioAssay AID1645848
≈ marks a conversion by molar mass, not a printed value.

Conditions: buffer; pH 7.4; 6.0 h; 150.0 µM
With CN1CCN(Cc2ccc(-c3ccc(C(C)(C)C#N)cc3)nc2)CC1 the solubility kinetic was > 49 µg/mL. In the case of COc1cc(Cl)cn2c(-c3cccc(NC4CNC4)n3)cnc12, the solubility kinetic is reported as > 49 µg/mL. With CC(C)c1ccccc1-c1ncc(F)c(NC2(c3ccc(-c4cccnc4)cc3)CC2)n1 the solubility kinetic was < 1 µg/mL. For COc1c(O)cc2c(c1OC)-c1ccc(SC)c(=O)cc1C(NC(C)=O)CC2 (centres undefined), the solubility kinetic was > 59 µg/mL. With Cc1cc(C)nc(NS(=O)(=O)c2ccc(NC(=S)NC(=O)COc3ccc(Br)cc3Cl)cc2)n1 the solubility kinetic was > 100 µg/mL. For O=S(=O)(Nc1nccs1)c1ccc(NCc2cccc(O)c2)cc1, the solubility kinetic was > 53 µg/mL. In the case of Nc1c(-c2ccccc2)cc[nH]c1=O, the solubility kinetic is reported as 12.9 µg/mL (≈ 69.1 µM). With COc1cccc(-c2nc(-c3cc4cc(OC)ccc4[nH]c3=O)no2)c1 the solubility kinetic was < 1 µg/mL. In the case of COc1ccccc1Nc1ccnc(N2CCN(C(=O)c3ccccc3Cl)CC2)n1, the solubility kinetic is reported as 1.59 µg/mL (≈ 3.75 µM). O=C(CCCN1CCC(n2c(=O)[nH]c3ccccc32)CC1)c1ccc(F)cc1 gave a solubility kinetic of 33.3 µg/mL (≈ 87.2 µM). With Brc1ccc(-c2csc(N3CCC(c4nn[nH]n4)CC3)n2)cc1 the solubility kinetic was > 58 µg/mL. With O=c1cc(CN2CCCN(c3ccc(C(F)(F)F)cn3)CC2)nc2ccccn12 the solubility kinetic was > 60 µg/mL. Cc1ccc(S(=O)(=O)Nc2ccccc2C(=O)Nc2nccs2)cc1 showed a solubility kinetic of 7.17 µg/mL (≈ 19.2 µM). With COc1ccc(Cn2c(C(=O)O)c(CNCc3cccc(OC)c3)c3ccc(C)cc32)cc1 the solubility kinetic was 6.85 µg/mL (≈ 15.4 µM). With Cc1ccc(C(=O)NC2CCN(c3cnn(CC4CC4)c(=O)c3)CC2)cc1C the solubility kinetic was < 1 µg/mL. In the case of CC(=O)N1CCN(c2nc(-c3ccc(Br)cc3)cs2)CC1, the solubility kinetic is reported as < 1 µg/mL. Molecule O=c1cc(/C=C/c2c(F)cccc2Cl)[nH]c2ccccc12 has a solubility kinetic of 1.73 µg/mL (≈ 5.77 µM). O=c1c(O)c(-c2ccc(O)cc2)oc2cc(O)cc(O)c12 showed a solubility kinetic of 1.35 µg/mL (≈ 4.73 µM). In the case of CC(C)(N)C(=O)N[C@H](COCc1ccccc1)C(=O)N1CCC2(CC1)CN(S(C)(=O)=O)c1ccccc12, the solubility kinetic is reported as > 78 µg/mL. For COc1ccc(CCNc2ncnc3c2c(-c2ccccc2)cn3-c2cccc(Cl)c2)cc1OC, the solubility kinetic was < 1 µg/mL. Molecule CC(C)(C)CC(C)(C)c1ccc(O)cc1 has a solubility kinetic of 2.09 µg/mL (≈ 10.1 µM). In the case of COc1ccc(C(=O)NC2CCCc3c2[nH]c2ccccc32)cc1OC (centres undefined), the solubility kinetic is reported as 4.79 µg/mL (≈ 13.7 µM). With Cc1nc(Nc2n[nH]c3c2CN(C(=O)N[C@H](CN(C)C)c2ccccc2)C3(C)C)c2sccc2n1 the solubility kinetic was > 72 µg/mL. In the case of Cc1ccc(-c2csc(CCn3nc(C)c4c(C(F)(F)F)cc(=O)[nH]c43)n2)cc1, the solubility kinetic is reported as < 1 µg/mL. With NC(=O)C1CCN(c2ncc(-c3cccc(F)c3)s2)CC1 the solubility kinetic was 17.7 µg/mL (≈ 58.1 µM). With CCOc1ccc(CCNC(=O)c2cc3ccccc3n2CCN2CCOCC2)cc1OCC the solubility kinetic was 47.5 µg/mL (≈ 102 µM). For CC(C)c1cc(C(=O)N2CC[C@@H](NC(=O)C3CC3)C2)n[nH]1, the solubility kinetic was > 43 µg/mL. For Cn1cc(S(=O)(=O)N2CCCCCC2)cc1C(=O)Nc1ccc(Cl)c(C(F)(F)F)c1, the solubility kinetic was < 1 µg/mL. Molecule COC(=O)C1=COC(C)C2CN3CCc4c([nH]c5cc(OC)c(OC)cc45)C3CC12 (centres undefined) has a solubility kinetic of 46.9 µg/mL (≈ 114 µM). Work on CCOC(=O)c1[nH]c(C)c(CCC(=O)N2CCN(c3cc(C)ccc3C)CC2)c1C yielded a solubility kinetic of 6.25 µg/mL (≈ 15.2 µM). In the case of O=C(COC(=O)CCC(=O)c1cccs1)NCc1ccco1, the solubility kinetic is reported as > 47 µg/mL. In the case of Clc1ccc(-c2nc(-c3ccc(Br)o3)no2)c(Cl)c1, the solubility kinetic is reported as < 1 µg/mL. With CC(C)(C)OC(=O)N[C@@H](Cc1ccc(OS(=O)(=O)c2cccc3cnccc23)cc1)C(=O)N1CCCN(C(=O)OC(C)(C)C)CC1 the solubility kinetic was < 1 µg/mL. In the case of CN(C(=O)CNC(=O)c1cc(F)ccc1OCC(=O)Nc1ccc(I)cc1)c1ccc(F)cc1, the solubility kinetic is reported as < 1 µg/mL. For Cn1cncc1[C@@](N)(c1ccc(Cl)cc1)c1ccc2c(c1)c(-c1cccc(Cl)c1)cc(=O)n2C, the solubility kinetic was < 1 µg/mL. For CCC(CC)c1cc([C@H]2CN3CC[C@H]2C[C@@H]3CNC(C)=O)nc(-c2ccncc2)n1, the solubility kinetic was > 60 µg/mL. For Cn1cnc2c(F)c(Nc3ccc(Br)cc3Cl)c(C(=O)NOCCO)cc21, the solubility kinetic was > 45 µg/mL. Work on Cc1ccc(-c2nn(C(C)(C)C)c3ncnc(N)c23)cc1 yielded a solubility kinetic of 2.5 µg/mL (≈ 8.88 µM). For Cc1ccc(S(=O)(=O)Nc2cnccc2C(=O)Nc2nc(C3CCC3)cs2)cc1, the solubility kinetic was > 63 µg/mL. In the case of Cc1c(CN(C)c2cc(C3CC(O)C3)nc(N)n2)[nH]c2ccccc12 (centres undefined), the solubility kinetic is reported as > 50 µg/mL. In the case of CCOc1ccc(CCNC(=O)c2cc3sccc3n2Cc2cccc(C)c2)cc1OCC, the solubility kinetic is reported as < 1 µg/mL. With CN1CCN(C2=Nc3cc(Cl)ccc3Nc3ccccc32)CC1 the solubility kinetic was 25.1 µg/mL (≈ 76.8 µM). For O=[N+]([O-])c1ccc(/C=N/n2c(CO)nc3ccccc32)s1, the solubility kinetic was < 1 µg/mL. In the case of CCN(CC)C(=O)c1ccc2c(c1)ncn2-c1cccc(C)c1, the solubility kinetic is reported as > 45 µg/mL. Cc1ccc(OCCn2c(CCNC(=O)N3CCCCC3)nc3ccccc32)cc1 showed a solubility kinetic of 9.07 µg/mL (≈ 22.3 µM). For O=C1CCCC2=C1C(c1[nH]ncc1Cl)N=C(Nc1nc3c(Cl)cccc3o1)N2 (centres undefined), the solubility kinetic was 1.83 µg/mL (≈ 4.39 µM). COCCNC(=O)c1ccc(Cn2c(=S)[nH]c3cc4c(cc3c2=O)OCO4)cc1 showed a solubility kinetic of 6.98 µg/mL (≈ 16.9 µM). With CCOc1ccc(Nc2nc(C)c(NC(=O)c3ccc(C)cc3)c(Nc3ccc(OCC)cc3)n2)cc1 the solubility kinetic was < 1 µg/mL. With CCOc1ccc(CCNC(=O)c2cc3sccc3n2Cc2ccccc2)c(F)c1OCC the solubility kinetic was < 1 µg/mL. For O=C(Nc1nc(-c2ccccc2)cs1)c1ccncc1NS(=O)(=O)c1cccc(Cl)c1, the solubility kinetic was < 1 µg/mL. In the case of COc1ccc(NC(=O)c2c(C)c(C(C)=O)c(C)n2C)cc1S(=O)(=O)Nc1ccc(Br)cc1, the solubility kinetic is reported as < 1 µg/mL. In the case of COc1ccccc1N1CCN(c2ccc3cc(S(=O)(=O)N4CCCCC4)ccc3n2)CC1, the solubility kinetic is reported as < 1 µg/mL. With Cc1cc(-c2nnc3n2CCCCC3)c(C)n1-c1ccc(C#N)cc1 the solubility kinetic was > 49 µg/mL. For CCOc1ccc(CCNC(=O)c2ccc(C3(C(F)(F)F)N=N3)cc2)cc1OCC, the solubility kinetic was < 1 µg/mL. In the case of CC1=C(C(=O)Nc2nncs2)C2(CCCC2)N=C(Nc2nc3ccccc3o2)N1, the solubility kinetic is reported as < 1 µg/mL. For Oc1cccc(-c2nc(N3CCOCC3)c3oc4ncccc4c3n2)c1, the solubility kinetic was < 1 µg/mL. With CCn1cc(CNC(=O)c2cc(-c3ccc(C)cc3)nc3ccc(Br)cc23)c(C)n1 the solubility kinetic was < 1 µg/mL. With CS(=O)(=O)c1cccc(-c2csc(N3CCC(C(N)=O)CC3)n2)c1 the solubility kinetic was 11.7 µg/mL (≈ 32 µM). O=C(NC1CCCCC1)N1Cc2[nH]cnc2C[C@H]1c1nc(-c2cccc([N+](=O)[O-])c2)no1 gave a solubility kinetic of 14.2 µg/mL (≈ 32.5 µM). In the case of Clc1ccc(Nc2nc(-c3ccncc3)nc3ccccc23)cc1Cl, the solubility kinetic is reported as < 1 µg/mL. In the case of CCOc1ccc(CCNC(=O)c2cc3ccccc3n2Cc2ccc(Cl)c(F)c2)cc1OCC, the solubility kinetic is reported as < 1 µg/mL. In the case of O=C(Nc1cccc(Cc2ccccc2)c1)c1ccc(-c2cccc([N+](=O)[O-])c2)o1, the solubility kinetic is reported as < 1 µg/mL. CNC(=O)C1CCN(c2nc(-c3ccc(Br)cc3)cs2)CC1 showed a solubility kinetic of 3.67 µg/mL (≈ 9.64 µM). With Cc1ccc(S(=O)(=O)Nc2ccc(C(=O)Nc3ncc(-c4ccccc4)s3)cc2)cc1 the solubility kinetic was < 1 µg/mL. In the case of Cc1cc(-c2nc(Nc3ccc(F)c(F)c3)c3ccccc3n2)ccn1, the solubility kinetic is reported as < 1 µg/mL. In the case of CC(C)(C)OC(=O)N[C@@H](Cc1ccc(O[S+](=O)([O-])c2cccc3cnccc23)cc1)C(=O)N1CCN(Cc2ccccc2)CC1, the solubility kinetic is reported as < 1 µg/mL. Work on Nc1cc2nc3ccccc3oc-2cc1=O yielded a solubility kinetic of 17.9 µg/mL (≈ 84.6 µM). For CCOc1ccc(CCNC(=O)c2cc3ccccc3n2Cc2cc(C)cc(C)n2)cc1OCC, the solubility kinetic was < 1 µg/mL. In the case of Fc1cc(Nc2nc(-c3ccncc3)nc3ccccc23)ccc1-c1cc(F)c(F)c(F)c1, the solubility kinetic is reported as < 1 µg/mL. Work on Cc1cccc(S(=O)(=O)Nc2cnccc2C(=O)Nc2nc(-c3ccccc3)cs2)c1 yielded a solubility kinetic of 21.8 µg/mL (≈ 48.3 µM). Cc1cc(-c2nnc3n2CCCCC3)c(C)n1-c1cccc(C(F)(F)F)c1 showed a solubility kinetic of 32.8 µg/mL (≈ 87.5 µM). In the case of COc1ccc(-c2nc(NC(C)c3ccccc3)c3ccccc3n2)cc1 (centres undefined), the solubility kinetic is reported as < 1 µg/mL. For Cn1c(=O)c2c(-c3ccc(Br)cc3)n(CCc3ccccc3)cc2n(C)c1=O, the solubility kinetic was 14.7 µg/mL (≈ 33.5 µM). For Cc1cccc(C(=O)Nc2ccc(N3CCC(N4CCCCC4)CC3)c(C(=O)O)c2)c1, the solubility kinetic was > 62 µg/mL. In the case of Cc1c(C(=O)OCCOc2ccccc2)[nH]c2c1C(=O)CC(c1ccccc1)C2 (centres undefined), the solubility kinetic is reported as < 1 µg/mL. In the case of CCN(c1ccccc1)S(=O)(=O)c1c(C)nc2scc(C)n2c1=O, the solubility kinetic is reported as > 54 µg/mL. With Cc1ccc(-n2nc3c(=O)n(CCCC(=O)NCc4ccccc4F)nc(C)c3c2C)cc1 the solubility kinetic was 4.17 µg/mL (≈ 9.32 µM). With CCC(=O)NC(c1ccco1)c1cc(Cl)c2cccnc2c1O (centres undefined) the solubility kinetic was < 1 µg/mL. With COCCN1CCNc2nc(COc3ccc(C(C)C)cc3)n(Cc3ccccc3)c2C1=O the solubility kinetic was < 1 µg/mL. CSc1ccc(/C=C/c2nc3ccccc3n2S(=O)(=O)c2ccc(Br)cc2)cc1 gave a solubility kinetic of 2.73 µg/mL (≈ 5.63 µM). Work on CC(C)CNC(=O)c1cn2cc(-c3ccccc3)sc2n1 yielded a solubility kinetic of 5.33 µg/mL (≈ 17.8 µM). Work on CCCCCn1c(CCCNC(=O)c2ccccc2OC)nc2ccccc21 yielded a solubility kinetic of 32.3 µg/mL (≈ 85.2 µM). Work on O=C1Nc2cc(Cl)ccc2/C1=C\c1cc(Cl)c(O)c(Cl)c1 yielded a solubility kinetic of 5.95 µg/mL (≈ 17.5 µM). For O=S(=O)(Nc1nccs1)c1ccc(NCc2ccc(Br)cc2O)cc1, the solubility kinetic was < 1 µg/mL. In the case of Cc1ccc(C)c(CN2C(=O)c3ccccc3S(=O)c3ccc(C(=O)N4CCN(c5ccccc5F)CC4)cc32)c1 (centres undefined), the solubility kinetic is reported as < 1 µg/mL. In the case of CCOc1ccc(-c2csc(N3CCC(C(N)=O)CC3)n2)cc1, the solubility kinetic is reported as 11 µg/mL (≈ 33.2 µM). For CC(=O)Nc1ccc(C(=O)Nc2ccccc2N)cc1, the solubility kinetic was > 40 µg/mL. CCn1c(SCc2ccc(C#N)cc2)nnc1-c1cccc(Cl)c1 showed a solubility kinetic of 34.2 µg/mL (≈ 96.3 µM). In the case of O=S(=O)(Nc1ccccc1)c1ccc(NCc2cccc(Cl)c2O)cc1, the solubility kinetic is reported as 2.64 µg/mL (≈ 6.8 µM). In the case of Fc1ccc(Nc2ccnc(-c3ccncc3)n2)cc1F, the solubility kinetic is reported as 1.22 µg/mL (≈ 4.27 µM). Work on Cc1ccc(S(=O)(=O)n2cc(C(=O)Nc3nc(-c4ccccc4)cs3)c3ccccc32)cc1 yielded a solubility kinetic of 2.2 µg/mL (≈ 4.65 µM). For COc1cccc(CC(=O)Nc2nc(-c3ccc4c(c3)CCN4C(=O)c3ccccc3C)c(C)s2)c1, the solubility kinetic was < 1 µg/mL. CCN(CC)CCCC(C)Nc1cc(/C=C/c2ccccc2Cl)nc2cc(Cl)ccc12 (centres undefined) showed a solubility kinetic of 25.4 µg/mL (≈ 55.7 µM). With Cc1cccc(-c2noc([C@@H]3Cc4nc[nH]c4CN3C(=O)CC(C)(C)CC(=O)O)n2)c1 the solubility kinetic was > 63 µg/mL. For CS(=O)(=O)Nc1cccc(-c2nccc(-n3ccnc3)n2)c1, the solubility kinetic was > 47 µg/mL. With Cc1ccc(S(=O)(=O)Nc2cnccc2C(=O)Nc2nc(-c3ccc4c(c3)CCCC4)cs2)cc1 the solubility kinetic was < 1 µg/mL. COc1ccc(NC(=O)c2[nH]c(C)c(C(C)=O)c2C)cc1S(=O)(=O)Nc1ccc(C#N)cc1 gave a solubility kinetic of 4.06 µg/mL (≈ 8.7 µM). Work on N#Cc1ccc(-c2csc(N3CCC(C(N)=O)CC3)n2)cc1 yielded a solubility kinetic of 4.34 µg/mL (≈ 13.9 µM). For O=C(Nc1ccc(N2CCN(c3ncccc3C(F)(F)F)CC2)nc1)c1cccs1, the solubility kinetic was < 1 µg/mL.
